Measurements: patent US10570179B2, “Substituted urea depsipeptide analogs as activators of the CLPP endopeptidase” (priority 2016, dated 2020)
In brackets after ≈: the same amount, converted by molar mass. Read-outs that look alike come from different tables or passages of the source. Numbered stars: 1 amine (or outer) side, 2 acyl side, 3 side chain; on linkers, the order of the positions; unused ones are H or OH. Bridge positions count the residues as written; N and C are the ends. Square brackets hold non-standard residues; d marks the D form. Peptide text beside a SMILES is read from it. * marks the point of attachment. Piperazine(2S-CO,4-Me) = CN1CCN[C@H](C(=O)O)C1; Morpholine(3S-CO) = O=C(O)[C@@H]1COCCN1; Phe(3-Me) = Cc1cccc(C[C@H](N)C(=O)O)c1; NH(4-Cl-2-F-phenyl) = Fc1cc(Cl)ccc1N*; Pro(4R-Me) = C[C@H]1CN[C@H](C(=O)O)C1; X1 = O=C([C@@H]1CSCCN1[*:1])[*:2]; Hyp = O=C(O)[C@@H]1C[C@@H](O)CN1; NH(4-Et-phenyl) = CCc1ccc(N*)cc1; NH(4-Me-phenyl) = Cc1ccc(N*)cc1; aThr = C[C@H](O)[C@H](N)C(=O)O; CO = O=C([*:1])[*:2]; X2 = Fc1cc(N*)ccc1Cl

Tests used:
[1] = Plasma protein binding, rapid equilibrium dialysis; type: in vitro ADME, mouse
[2] = test system: S. pyogenes; experiment: Minimal inhibitory concentration, microbroth dilution; type: cell-based; settings: Streptococcus pyogenes; MIC; read-out: Minimal Inhibitory Concentrations (μM) S. pyogenes
Procedure, shortened: (§1)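 MICs were determined by CLSI broth microdilution, using two-fold compound dilutions from a final 200 μM and about 10^5 cfu/mL inoculum. Plates were incubated aerobically at 37 °C overnight. The MIC was read visually as the lowest concentration preventing growth.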

[3] = test system: S. aureus ATCC 29213; experiment: as above; type: cell-based; settings: Staphylococcus aureus
Procedure, shortened: as §1

[4] = test system: MRSA NRS70; experiment: as above; type: cell-based; settings: Staphylococcus aureus
Procedure, shortened: as §1

[5] = test system: S. aureus USA 300; experiment: as above; type: cell-based; settings: Staphylococcus aureus
Procedure, shortened: as §1

[6] = test system: E. faecails; experiment: as above; type: cell-based; settings: Enterococcus faecalis
Procedure, shortened: as §1

[7] = test system: S. pneumoniae; experiment: as above; type: cell-based; settings: Streptococcus pneumoniae; MIC; read-out: Minimal Inhibitory Concentrations (μM) S. pneumoniae
Procedure, shortened: as §1

[8] = Plasma pharmacokinetics; type: in vivo, male BALB/c mice; settings: for Vd: read-out: Vss
[9] = ATCC29213, MIC, read-out: Minimal Inhibitory Concentrations (μM) S. aureus ATCC 29213
[10] = MIC, read-out: Minimal Inhibitory Concentrations (μM) MRSA NRS70
[11] = USA300, MIC, read-out: Minimal Inhibitory Concentrations (μM) S. aureus USA 300
[12] = MIC, read-out: Minimal Inhibitory Concentrations (μM) E. faecails
[13] = male, BALB/c, mouse, in vivo, iv
[14] = male, BALB/c, mouse, in vivo, iv, 10 mg/kg, Route i.v.

Compound	Mouse ([1]; mouse, 4 h, 10 μM, pH 7.4)	MIC [2]	MIC [3, 9]	MIC [4, 10]	MIC [5, 11]	MIC [6, 12]	MIC [7]	AUC(0-inf) [8, 13]	AUC(0-t) [8, 13]	C^0 [8, 13]	clearance [8, 13]	half-life [8, 13]	Vd [8, 14]	also measured
Cc1cccc(C[C@H](NC(=O)Nc2ccc(Cl)cc2F)C(=O)N[C@H]2COC(=O)[C@@H]3C[C@@H](C)CN3C(=O)[C@H](C)NC(=O)[C@@H]3CN(C)CCN3C(=O)[C@@H]3CCCN3C2=O)c1 [Compound 13, (S)-2-(3-(4-CHLORO-2-FLUOROPHENYL)UREIDO)-3-(M-TOLYL)-N-((6AS,12S,15AS,17R,21S,23AS)-2,17,21-TRIMETHYL-6,11,15,20,23-PENTAOXOOCTADECAHYDRO-2H,6H,11H,15H-PYRAZINO[2,1-I]DIPYRROLO[2,1-C:2′,1′-L][1]OXA[4,7,10,13]TETRAAZACYCLOHEXADECIN-12-YL)PROPANAMIDE] ({NH(4-Cl-2-F-phenyl)-CO}-[Phe(3-Me)]SP[Piperazine(2S-CO,4-Me)]A[Pro(4R-Me)]; ester 2-C)	97.5 ± 0.3%	0.313 µM (≈ 0.258 µg/mL)	1.25 µM (≈ 1.03 µg/mL)	1.25 µM (≈ 1.03 µg/mL)	2.5 µM (≈ 2.06 µg/mL)	0.625 µM (≈ 0.516 µg/mL)	0.156 µM (≈ 0.129 µg/mL)	–	–	–	–	–	–	–
Cc1cccc(C[C@H](NC(=O)Nc2ccc(Cl)c(F)c2)C(=O)N[C@H]2COC(=O)[C@@H]3C[C@@H](C)CN3C(=O)[C@H](C)NC(=O)[C@@H]3CN(C)CCN3C(=O)[C@@H]3CCCN3C2=O)c1 [Compound 14, (S)-2-(3-(4-CHLORO-3-FLUOROPHENYL)UREIDO)-3-(M-TOLYL)-N-((6AS,12S,15AS,17R,21S,23AS)-2,17,21-TRIMETHYL-6,11,15,20,23-PENTAOXOOCTADECAHYDRO-2H,6H,11H,15H-PYRAZINO[2,1-I]DIPYRROLO[2,1-C:2′,1′-L][1]OXA[4,7,10,13]TETRAAZACYCLOHEXADECIN-12-YL)PROPANAMIDE] ({X2-CO}-[Phe(3-Me)]SP[Piperazine(2S-CO,4-Me)]A[Pro(4R-Me)]; ester 2-C)	98.9 ± 0.1%	1.25 µM (≈ 1.03 µg/mL)	5 µM (≈ 4.13 µg/mL)	2.5 µM (≈ 2.06 µg/mL)	5 µM (≈ 4.13 µg/mL)	1.25 µM (≈ 1.03 µg/mL)	0.625 µM (≈ 0.516 µg/mL)	–	–	–	–	–	–	–
CCc1ccc(NC(=O)N[C@@H](Cc2cccc(C)c2)C(=O)N[C@@H]2C(=O)N3C[C@H](O)C[C@H]3C(=O)N3CCOC[C@H]3C(=O)N[C@@H](C)C(=O)N3C[C@H](C)C[C@H]3C(=O)O[C@H]2C)cc1 [Compound 24, (S)-2-(3-(4-ETHYLPHENYL)UREIDO)-N-((6AS,8R,12S,13S,15AS,17R,21S,23AS)-8-HYDROXY-13,17,21-TRIMETHYL-6,11,15,20,23-PENTAOXOOCTADECAHYDRO-6H,11H,15H-[1,4]OXAZINO[3,4-I]DIPYRROLO[2,1-C:2′,1′-L][1]OXA[4,7,10,13]TETRAAZACYCLOHEXADECIN-12-YL)-3-(M-TOLYL)PROPANAMIDE] ({NH(4-Et-phenyl)-CO}-[Phe(3-Me)][aThr][Hyp][Morpholine(3S-CO)]A[Pro(4R-Me)]; ester 2-C)	98.2 ± 0.1%	–	0.313 µM (≈ 0.256 µg/mL)	0.156 µM (≈ 0.128 µg/mL)	0.313 µM (≈ 0.256 µg/mL)	0.156 µM (≈ 0.128 µg/mL)	–	3870 ng·h/mL	3850 ng·h/mL	27083.47 ng/mL	43 mL/min/kg	0.34 h	0.51 L/kg	–
Cc1ccc(NC(=O)N[C@@H](Cc2cccc(C)c2)C(=O)N[C@@H]2C(=O)N3C[C@H](O)C[C@H]3C(=O)N3CCN(C)C[C@H]3C(=O)N[C@@H](C)C(=O)N3C[C@H](C)C[C@H]3C(=O)O[C@H]2C)cc1 [Compound 30, (S)—N-((6AS,8R,12S,13S,15AS,17R,21S,23AS)-8-HYDROXY-2,13,17,21-TETRAMETHYL-6,11,15,20,23-PENTAOXOOCTADECAHYDRO-2H,6H,11H,15H-PYRAZINO[2,1-I]DIPYRROLO[2,1-C:2′,1′-L][1]OXA[4,7,10,13]TETRAAZACYCLOHEXADECIN-12-YL)-3-(M-TOLYL)-2-(3-(P-TOLYL)UREIDO)PROPANAMIDE] ({NH(4-Me-phenyl)-CO}-[Phe(3-Me)][aThr][Hyp][Piperazine(2S-CO,4-Me)]A[Pro(4R-Me)]; ester 2-C)	–	–	–	–	–	–	–	–	–	–	–	–	1.74 L/kg	C^0 ([8]; Route i.v.): 12355.62 ng/mL; AUC(0-inf) ([8]; male, BALB/c, mouse, in vivo, iv, 10 mg/kg, Route i.v., read-out: AUCinf): 2650 ng·h/mL; AUC(0-t) ([8]; male, BALB/c, mouse, in vivo, iv, 10 mg/kg, Route i.v., read-out: AUClast): 2620 ng·h/mL; clearance ([8]; male, BALB/c, mouse, in vivo, iv, 10 mg/kg, Route i.v., read-out: CL): 63 mL/min/kg; half-life ([8]; male, BALB/c, mouse, in vivo, iv, 10 mg/kg, Route i.v., read-out: T1/2 (converted)): 2.08 h; Mouse ([1]; plasma binding, % Bound, mouse plasma): 92.4 ± 2.4%; MIC ([3]; ATCC29213, read-out: Minimal Inhibitory Concentrations (μM) S. aureus ATCC 29213, MIC): 0.625 µM (≈ 0.511 µg/mL); MIC ([4]; read-out: Minimal Inhibitory Concentrations (μM) MRSA NRS70, MIC): 2.5 µM (≈ 2.04 µg/mL); MIC ([5]; USA300, read-out: Minimal Inhibitory Concentrations (μM) S. aureus USA 300, MIC): 2.5 µM (≈ 2.04 µg/mL); MIC ([6]; read-out: Minimal Inhibitory Concentrations (μM) E. faecails, MIC): 0.313 µM (≈ 0.256 µg/mL)
Cc1cccc(C[C@H](NC(=O)Nc2ccc(Cl)cc2F)C(=O)N[C@@H]2C(=O)N3C[C@H](O)C[C@H]3C(=O)N3CCN(C)C[C@H]3C(=O)N[C@@H](C)C(=O)N3C[C@H](C)C[C@H]3C(=O)O[C@H]2C)c1 [Compound 31, (S)-2-(3-(4-CHLORO-2-FLUOROPHENYL)UREIDO)-N-((6AS,8R,12S,13S,15AS,17R,21S,23AS)-8-HYDROXY-2,13,17,21-TETRAMETHYL-6,11,15,20,23-PENTAOXOOCTADECAHYDRO-2H,6H,11H,15H-PYRAZINO[2,1-I]DIPYRROLO[2,1-C:2′,1′-L][1]OXA[4,7,10,13]TETRAAZACYCLOHEXADECIN-12-YL)-3-(M-TOLYL)PROPANAMIDE] ({NH(4-Cl-2-F-phenyl)-CO}-[Phe(3-Me)][aThr][Hyp][Piperazine(2S-CO,4-Me)]A[Pro(4R-Me)]; ester 2-C)	96.9 ± 6.9%	–	< 0.02 µM	< 0.02 µM	0.078 µM (≈ 0.0667 µg/mL)	< 0.02 µM	–	5260 ng·h/mL	5250 ng·h/mL	30582.19 ng/mL	31.7 mL/min/kg	1.55 h	0.63 L/kg	–
Cc1cccc(C[C@H](NC(=O)Nc2ccc(Cl)cc2F)C(=O)N[C@@H]2C(=O)N3CCC[C@H]3C(=O)N3CCSC[C@H]3C(=O)N[C@@H](C)C(=O)N3C[C@H](C)C[C@H]3C(=O)O[C@H]2C)c1 [Compound 38, (S)-2-(3-(4-CHLORO-2-FLUOROPHENYL)UREIDO)-3-(M-TOLYL)-N-((6AS,12S,13S,15AS,17R,21S,23AR)-13,17,21-TRIMETHYL-6,11,15,20,23-PENTAOXOOCTADECAHYDRO-6H,11H,15H-DIPYRROLO[2,1-C:2′,1′-L][1,4]THIAZINO[3,4-I][1]OXA[4,7,10,13]TETRAAZACYCLOHEXADECIN-12-YL)PROPANAMIDE] ({NH(4-Cl-2-F-phenyl)-CO}-[Phe(3-Me)][aThr]P[X1]A[Pro(4R-Me)]; ester 2-C)	96.0 ± 6.0%	–	0.039 µM (≈ 0.0329 µg/mL)	0.039 µM (≈ 0.0329 µg/mL)	0.078 µM (≈ 0.0657 µg/mL)	0.078 µM (≈ 0.0657 µg/mL)	–	13300 ng·h/mL	13200 ng·h/mL	16999.46 ng/mL	12.6 mL/min/kg	3.11 h	1.77 L/kg	–
